# Source: patent publication EP3431468B1, “USE OF ADIPONECTIN RECEPTOR AGONISTS IN TREATING DEPRESSION, ANXIETY AND NEUROINFLAMMATION” (CENTRE NATIONAL DE LA RECHERCHE SCIENTIFIQUE, priority 2017, dated 2019)
# Key:
# Type in all cases: in vivo
# wt mice = experiment: Open-field test (OF), locomotor activity; settings: chronic ip 1mg/kg for twenty consecutive days, 10 minutes recording
# Experimental: All behavioral testing were conducted during the light phase (between 09:00 and 14:00 am) in compliance with the Institutional Animal Care and Use Committee of the University of Nice-Sophia Antipolis (permission number 010344.01 from the French "Ministère de l'Enseignement Supérieur et de la Recherche" granted to Dr. Joëlle Chabry). • Forced Swimming test (FST) - Mice were placed an inescapable transparent tank (20cm diameter, 30cm deep) filled with water (23°C ± 0.5) for six minutes as previously described by Porsolt et al. (1977). The immobility duration, as an index of the resignation, was timed during the last four minutes of the test. A mouse was considered immobile when it remained floating with only slight movements to keep its head out of the water. • Open-field test (OF) - Locomotor activity was determined using open-field (OF) activity. […] Twenty-four hours later, the latency to fall, an index of the motor coordination, was recorded on accelerating rod (from 10 to 40 rpm/min). • Light & Dark test (L&D) - The L&D place preference test was used to assess the anxiety-like behavior. […] To initiate testing, mice were placed into the light side and activity was recorded for 5 minutes. […] The amount of water and 1% sucrose solution was measured twenty-four hours later. […]
# Kyn pathway = experiment: Kynurenine pathway metabolites measurement in plasma; settings: long-term corticosterone-treated mice, chronic AdipoRon treatment
# Experimental: Data were digitized at 5-10 kHz using a Digidata interface coupled to a microcomputer running pClamp 9 (Axon Instruments, USA). Current-clamp data were digitized at 0.5 kHz using the same interface. Potentials were digitally filtered at 1-3 kHz. Average data were expressed as mean ± SEM, n = number of neurons, N = number of mice. • Western blot analysis - Total proteins were extracted from mouse hypothalamus by homogenization in lysis buffer (50mM Tris-HCl, pH7.5, 150mM NaCl, 5mM EDTA containing 0.5% Triton X-100 and 0.5% sodium deoxycholate with a coktail of protease and phosphatase inhibitors). Equal amounts of total proteins (50µg) determined by the Bradford method (BioRad) were separated onto 12% SDS-PAGE, then transferred on nitrocellulose membrane (Schleicher & Schuell, Dassel, Germany). […] IFNγ, IL1β, IL6, and TNFα, levels were measured using an electro-chemo-luminescence (ECL)-based assay (U-plex, MesoScaleDiscovery) following manufacturer instructions. Results were standardized according to the protein concentration of each sample determined by the Bradford method. • Kynurenine pathway metabolites measurement - Plasma levels of L-kynurenin (L-Kyn), tryptophan (Trp), kynurenin acid (Kyn ac), 5-HT and 5-HIAA were determined as follows: 25µl of plasma was deproteinated with 150µl of cold MeOH. […]
# [1] = test system: pro-inflammatory cytokines (IL1β, IL6, TNFα, IFNγ); experiment: Pro-inflammatory cytokines measurement in brain areas (ECL-based assay); settings: corticosterone-treated mice, chronic AdipoRon
# Experimental: Data were digitized at 5-10 kHz using a Digidata interface coupled to a microcomputer running pClamp 9 (Axon Instruments, USA). Current-clamp data were digitized at 0.5 kHz using the same interface. Potentials were digitally filtered at 1-3 kHz. Average data were expressed as mean ± SEM, n = number of neurons, N = number of mice. • Western blot analysis - Total proteins were extracted from mouse hypothalamus by homogenization in lysis buffer (50mM Tris-HCl, pH7.5, 150mM NaCl, 5mM EDTA containing 0.5% Triton X-100 and 0.5% sodium deoxycholate with a coktail of protease and phosphatase inhibitors). Equal amounts of total proteins (50µg) determined by the Bradford method (BioRad) were separated onto 12% SDS-PAGE, then transferred on nitrocellulose membrane (Schleicher & Schuell, Dassel, Germany). Blots were incubated in PBS 0.1% Tween, 2% BSA with antibodies directed against phospho-AMPKα (Thr172), total AMPK (Cell Signaling), and then with the appropriate HRP-secondary antibody. […] IFNγ, IL1β, IL6, and TNFα, levels were measured using an electro-chemo-luminescence (ECL)-based assay (U-plex, MesoScaleDiscovery) following manufacturer instructions. Results were standardized according to the protein concentration of each sample determined by the Bradford method. • Kynurenine pathway metabolites measurement - Plasma levels of L-kynurenin (L-Kyn), tryptophan (Trp), kynurenin acid (Kyn ac), 5-HT and 5-HIAA were determined as follows: 25µl of plasma was deproteinated with 150µl of cold MeOH. […] Determination of L-Kyn, Trp, Kyn ac, 5-HT and 5-HIAA levels, done in triplicate, were determined by liquid chromatography coupled to MS-MS analysis as previously described with minor modifications (Fuertig, Ceci et al. 2016). • Statistical Analysis - Statistical analyses were performed using GraphPad Prism 4.0 software. Biological parameters and q-PCR data were analyzed using a one-way (treatment) or two-way (pretreatment X treatment) analysis of variance, followed by a post-hoc multiple comparison procedure using the Dunnett's method. […]
smiles,measurement,setting,value
"O=C(COc1ccc(C(=O)c2ccccc2)cc1)NC1CCN(Cc2ccccc2)CC1 [AdipoRon, 2-(4-Benzoylphenoxy)-N-[1-(phenylmethyl)-4-piperidinyl]-acetamide]",mean speed in the OF test,wt mice,did not significantly modify
same,total distance traveled in the OF test,wt mice,did not significantly modify
same,Kyn ac:L-Kyn ratio,Kyn pathway,restoring the physiological
same,L-Kyn:Trp ratio,Kyn pathway,restoring the physiological
same,corticosterone-induced cytokines differences (IFNγ),[1]; hippocampus,abolished
same,"corticosterone-induced cytokines differences (IL1β, TNFα, IFNγ)",[1]; hypothalamus,abolished
same,"corticosterone-induced cytokines differences (IL1β, IL6, TNFα)",[1]; prefrontal cortex,abolished
